Test results published in US20080207760A1, “Pharmaceutical Compositions For and Methods of Inhibiting Hcv” (priority 2005, published 2008).
Entries after “also recorded” stand apart in the source; their conditions may differ.

Legend:
synthetic NS4A [1] = molecular target: T1, synthetic NS4A (Hepatitis C virus genotype 1b, UniProt Q9WMX2); assay: Competition assay with [3H] labeled azidoacylthiourea for NS4A binding; set-up: species or system HCV
T1 construct: The full length of NS4A (54 amino acids) is synthesized; made in house
Description: (§1) To determine whether acylthiourea compounds bind to NS4A, a photo-affinity labeling is carried out, in which an [^3H] labeled photo-reactive azidoacylthiourea, 1-(5-Azido-benzofuran-2-carbonyl)-3-(4-pentyloxy-3-trifluoromethyl-phenyl)-thiourea, is mixed with synthetic NS4A at various molar ratios. The mixture is incubated at 31° C. for one hour. Samples are then illuminated by a UV lamp (254 nm wavelength) at room temperature for 7 minutes. After denaturing with equal volume of Laemmli buffer containing 5% mercaptoethanol at 99° C. for 5 minutes, samples are separated on a 10-20% SDS-PAGE. After electrophoresis, the gel is fixed with 30% methanol—10% acetic acid overnight. Then the gel is treated with 3H enhancer solution (PerkinElmer) at room temperature for one hour, and subsequently with water for 30 minutes, and dried under vacuum.
To study the binding specificity of [^3H] labeled 1-(5-Azido-benzofuran-2-carbonyl)-3-(4-pentyloxy-3-trifluoromethyl-phenyl)-thiourea to synthetic NS4A, several structurally related compounds are used in the following competition assays. Non-labeled 1-(5-Azido-benzofuran-2-carbonyl)-3-(4-pentyloxy-3-trifluoromethyl-phenyl)-thiourea shares the same structure with [^3H] labeled 1-(5-Azido-benzofuran-2-carbonyl)-3-(4-pentyloxy-3-trifluoromethyl-phenyl)-thiourea. 1-(5-Azido-benzofuran-2-carbonyl)-3-(4-pentyloxy-3-trifluoromethyl-phenyl)-urea differs in structure from 1-(5-Azido-benzofuran-2-carbonyl)-3-(4-pentyloxy-3-trifluoromethyl-phenyl)-thiourea in that 1-(5-Azido-benzofuran-2-carbonyl)-3-(4-pentyloxy-3-trifluoromethyl-phenyl)-urea has a carbonyl group where 1-(5-Azido-benzofuran-2-carbonyl)-3-(4-pentyloxy-3-trifluoromethyl-phenyl)-thiourea has a thiocarbonyl group. […]

HCV replicon cells = assay: HCV replicon assay (RNA dot blot or NPTII ELISA); format: cell-based
Description: Cells expressing the HCV replicon are seeded onto the internal wells of 96-well plates at a density of 7,000 cells per well. One day later, different dilutions of the test compounds are added to corresponding wells and the plates are incubated in a CO2 incubator for 72 hours. After treatment, the cells are lysed with 70 μl RLN buffer per well (50 mM Tris-HCl [pH8.0], 140 mM NaCl, 1.5 mM MgCl2, 0.5% Nonidet P-40, 1,000 units/mL RNAsin and 1 mM […]). The total lysate is transferred to a new U bottom 96-well plate and nuclei and cell debris are pelleted with a brief spin (300×g for 3 minutes). 50 μl of supernatant is removed from the well and loaded directly onto manifold wells equipped with Nylon membranes. HCV RNA is hybridized at 58° C. overnight using a labeled HCV RNA probe containing a negative strand sequence complement to the NS5B region. Hybridization buffer is composed of 50% formamide, 5×SSPE, 1% SDS, 5× Denhart's solution, and sheared denatured salmon sperm DNA. Following hybridization, the membrane is washed with washing buffer (0.1×SSC, 0.1% SDS) at room temperature for two hours, then at 65° C. for 30 minutes. The radioactivity in each well is counted on a Microbeta counter and EC50 is calculated based on cpm. Alternatively, HCV replicon cells are trypsinized for 5-10 minutes in a CO2 incubator. Then, cells are placed in a 15 mL tube, and are spun at 1000 rpm for 4 minutes and trypsin solution is removed. Cell pellets are washed once with PBS and spun 4 minutes at 1000 rpm.
Trypsinization and wash steps, supra, are conducted efficiently to minimize cell death. PBS is removed and cells are resuspended in 4 mL fresh PBS and cells are seeded at a dilution of 5000 cells per well to 96 well plates. Test compounds are diluted in 96 well U bottom plates with DMEM (high glucose) (BRL, Catalog #21063) supplemented with 10% FBS, L-glutamine, and non-essential amino acid. 100 uL of test compound is loaded into each well. […]
100 uL of development solution (TMB one-step substrate system) is added and plates are developed in the dark for 10 to 30 minutes. […] OD450 is measured. […]

NS3 protease domain = NS3 protease domain (Hepatitis C virus genotype 1b, UniProt Q9WMX2); assay: Photo-affinity labeling; format: binding, HCV; conditions: [3H] labeled compound; same molar ratio as NS4A (3.3 μM)
Description: as §1
(§2) One band corresponds to NS4A monomer, which is also detectable with Coomassie blue staining (FIG. 3). […] Without being bound by any particular theory, it is believed that this band may be composed largely of polymer form or aggregates of NS4A. At the same time, full-length NS3 and NS3 protease domain is included in this binding assay.

full-length NS3 = full-length NS3 (Hepatitis C virus genotype 1b, UniProt Q9WMX2); assay: Photo-affinity labeling; format: binding, HCV; conditions: [3H] labeled compound; same molar ratio as NS4A (3.3 μM)
Description: as §1, §2

synthetic NS4A [2] = molecular target: T1, synthetic NS4A; assay: Photo-affinity labeling; format: binding, HCV; conditions: [3H] labeled compound, UV 254 nm, SDS-PAGE
Description: Experiments are undertaken to investigate the affinity and binding specificity of acylthiourea compounds to NS4A. The full length of NS4A (54 amino acids) is synthesized, and characterized with mass spectral analysis and HPLC profiling. An NS4A sample is then dissolved in 100% dimethylsulphoxide (DMSO) at a concentration of 2 μg/μl and subjected to a 10-20% SDS-PAGE with a reducing reagent. A 6 kDa protein band, consistent with the size of NS4A, is detected in the gel following a Coomassie blue staining. The NS4A identity of this band is further confirmed by a Western blot with monoclonal anti-NS4A antibody.
as §1, with “Then the gel is treated with 3H enhancer solution (PerkinElmer) at room temperature for one hour, and subsequently with water for 30 minutes, and dried under vacuum.” left out

T1 sequence (Q9WMX2 1658-1711): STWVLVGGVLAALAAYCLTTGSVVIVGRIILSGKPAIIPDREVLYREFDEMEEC
Sequence of full-length NS3 (Q9WMX2 1027-1657): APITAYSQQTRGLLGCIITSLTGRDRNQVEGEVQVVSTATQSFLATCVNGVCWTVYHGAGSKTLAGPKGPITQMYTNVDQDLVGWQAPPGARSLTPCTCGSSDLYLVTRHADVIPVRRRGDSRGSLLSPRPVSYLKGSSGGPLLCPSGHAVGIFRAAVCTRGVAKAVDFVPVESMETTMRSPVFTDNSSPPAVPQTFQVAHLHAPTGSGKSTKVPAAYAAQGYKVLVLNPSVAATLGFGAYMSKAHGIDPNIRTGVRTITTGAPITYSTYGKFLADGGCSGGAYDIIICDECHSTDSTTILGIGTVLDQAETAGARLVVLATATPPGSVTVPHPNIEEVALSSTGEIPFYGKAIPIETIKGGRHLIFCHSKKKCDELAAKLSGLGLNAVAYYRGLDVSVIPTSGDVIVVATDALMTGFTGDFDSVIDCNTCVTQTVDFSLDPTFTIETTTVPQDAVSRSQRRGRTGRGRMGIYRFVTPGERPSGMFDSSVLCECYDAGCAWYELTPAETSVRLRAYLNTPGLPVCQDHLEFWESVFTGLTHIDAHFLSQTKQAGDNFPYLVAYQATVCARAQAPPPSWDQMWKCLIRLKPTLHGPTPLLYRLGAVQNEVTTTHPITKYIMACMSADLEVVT
Sequence of NS3 protease domain (Q9WMX2 1027-1208): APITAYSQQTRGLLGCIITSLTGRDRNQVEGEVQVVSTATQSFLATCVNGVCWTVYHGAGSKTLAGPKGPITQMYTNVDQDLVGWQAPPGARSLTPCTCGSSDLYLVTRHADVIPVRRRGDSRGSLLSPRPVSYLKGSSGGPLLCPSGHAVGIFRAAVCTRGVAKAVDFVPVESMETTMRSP

SMILES | competition with [3H] labeled 1-(5-Azido-benzofuran-2-carbonyl)-3-(4-pentyloxy-3-trifluoromethyl-phenyl)-thiourea for NS4A binding (synthetic NS4A [1]) | anti-HCV activity in replicon cells (HCV replicon cells) | binding to NS3 protease domain (NS3 protease domain) | binding to full-length NS3 (full-length NS3) | binding to synthetic NS4A (synthetic NS4A [2])
CCCCCOc1ccc(NC(=O)NC(=O)c2cc3cc(N=[N+]=[N-])ccc3o2)cc1C(F)(F)F [1-(5-Azido-benzofuran-2-carbonyl)-3-(4-pentyloxy-3-trifluoromethyl-phenyl)-urea] | does not compete; also recorded: appears to abolish this competition capacity | does not exhibit any anti-HCV activity in replicon cells |  |  | 
CCCCCOc1ccc(NC(=S)NC(=O)c2cc3cc(N=[N+]=[N-])ccc3o2)cc1C(F)(F)F [1-(5-Azido-benzofuran-2-carbonyl)-3-(4-pentyloxy-3-trifluoromethyl-phenyl)-thiourea] |  |  | only weak binding signals | only weak binding signals | binds to synthetic NS4A; also recorded: two radioactive bands are shown in the gel
CCCCCOc1ccc(NC(=S)NC(=O)c2cc3ccccc3o2)cc1C(F)(F)F [1-(Benzofuran-2-carbonyl)-3-(4-pentyloxy-3-trifluoromethyl-phenyl)-thiourea] | effectively compete | exhibit anti-HCV activities in replicon cells |  |  | 
CCCCCOc1ccc(NC(=S)NC(=O)c2cccnc2)cc1C(F)(F)F [1-(4-Pentyloxy-3-trifluoromethyl-phenyl)-3-(pyridine-3-carbonyl)-thiourea] | effectively compete | exhibit anti-HCV activities in replicon cells |  |  | 
